# Structures can show the parent of a compound that is named as a salt.
# What was measured:
# [1] = biological target: T1, human, citrated, platelet-rich plasma (Homo sapiens, UniProt P05106+P08514); test: test (a): inhibition of ADP stimulated platelet aggregation in human, citrated, platelet-rich plasma; type: cell-based; details: read-out: pA2 (converted)
# T1 construct: aggregating human, citrated, platelet-rich plasma; endogenous in cells; host or cells: human platelets in citrated platelet-rich plasma
# T1 sequence (P08514 32-887 limits assumed): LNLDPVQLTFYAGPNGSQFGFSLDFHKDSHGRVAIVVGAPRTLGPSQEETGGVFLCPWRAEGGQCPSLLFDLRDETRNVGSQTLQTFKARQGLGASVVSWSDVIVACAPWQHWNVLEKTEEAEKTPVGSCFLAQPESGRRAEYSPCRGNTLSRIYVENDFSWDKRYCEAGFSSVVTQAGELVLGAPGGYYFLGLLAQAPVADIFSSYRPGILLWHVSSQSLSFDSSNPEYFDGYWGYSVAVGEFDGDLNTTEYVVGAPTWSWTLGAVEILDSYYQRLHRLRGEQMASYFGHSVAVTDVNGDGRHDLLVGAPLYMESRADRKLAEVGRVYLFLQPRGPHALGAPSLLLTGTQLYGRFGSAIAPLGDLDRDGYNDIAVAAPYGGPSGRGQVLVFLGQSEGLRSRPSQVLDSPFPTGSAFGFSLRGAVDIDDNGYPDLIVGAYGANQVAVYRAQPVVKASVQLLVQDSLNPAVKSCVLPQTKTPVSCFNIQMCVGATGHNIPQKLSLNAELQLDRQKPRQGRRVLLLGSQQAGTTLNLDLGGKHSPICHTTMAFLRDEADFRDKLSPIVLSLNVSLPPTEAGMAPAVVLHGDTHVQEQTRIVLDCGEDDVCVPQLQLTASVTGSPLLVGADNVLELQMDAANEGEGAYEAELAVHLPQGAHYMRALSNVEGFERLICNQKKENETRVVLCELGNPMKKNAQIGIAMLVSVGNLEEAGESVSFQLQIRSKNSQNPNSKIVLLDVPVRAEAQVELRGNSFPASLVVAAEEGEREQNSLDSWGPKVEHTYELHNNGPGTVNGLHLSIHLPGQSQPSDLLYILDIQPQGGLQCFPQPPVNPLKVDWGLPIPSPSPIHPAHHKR
# T1 sequence (P08514 891-1039 limits assumed): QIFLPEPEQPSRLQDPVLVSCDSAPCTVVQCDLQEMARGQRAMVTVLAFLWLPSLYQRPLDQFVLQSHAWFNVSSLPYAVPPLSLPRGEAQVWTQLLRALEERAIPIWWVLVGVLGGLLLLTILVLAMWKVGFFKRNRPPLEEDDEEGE
# T1 sequence (P05106 27-788): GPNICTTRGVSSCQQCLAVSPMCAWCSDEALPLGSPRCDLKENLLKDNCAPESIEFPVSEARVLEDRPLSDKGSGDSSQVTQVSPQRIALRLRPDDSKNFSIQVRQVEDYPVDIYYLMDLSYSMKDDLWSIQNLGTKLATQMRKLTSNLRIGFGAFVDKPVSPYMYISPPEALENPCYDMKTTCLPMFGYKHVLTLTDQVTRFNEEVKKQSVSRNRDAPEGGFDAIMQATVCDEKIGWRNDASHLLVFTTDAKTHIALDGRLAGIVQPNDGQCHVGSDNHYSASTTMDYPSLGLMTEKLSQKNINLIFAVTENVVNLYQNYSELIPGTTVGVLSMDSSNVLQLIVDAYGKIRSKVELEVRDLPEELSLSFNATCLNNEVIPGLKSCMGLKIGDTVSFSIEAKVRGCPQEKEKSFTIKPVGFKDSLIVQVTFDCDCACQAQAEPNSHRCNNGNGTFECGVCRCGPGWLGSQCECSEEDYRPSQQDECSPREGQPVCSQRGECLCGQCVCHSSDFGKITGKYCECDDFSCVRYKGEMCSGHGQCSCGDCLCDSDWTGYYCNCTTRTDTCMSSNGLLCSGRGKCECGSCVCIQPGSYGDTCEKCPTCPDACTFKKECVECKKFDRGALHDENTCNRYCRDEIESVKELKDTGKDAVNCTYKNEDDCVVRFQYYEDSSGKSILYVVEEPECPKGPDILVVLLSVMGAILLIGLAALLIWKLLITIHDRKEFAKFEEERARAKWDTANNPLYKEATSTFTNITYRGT
# Description: (i) aggregating human, citrated, platelet-rich plasma by addition of adenosine diphosphate (ADP) so as to generate a dose-response curve;
# (ii) generating a dose-response curve for ADP stimulated platelet aggregation in the presence of increasing amounts of a test compound (generally in the range 10^-5 M to 10^-10 M); and
# (iii) calculating a pA2 value indicating potency of platelet aggregation inhibition for the test compound, averaged over several concentrations, from the calculated 50% response value for ADP aggregation in the presence and absence of the test compound.
# [2] = biological target: T2, purified human platelet fibrinogen receptor (GPIIb/IIIa) (Homo sapiens, UniProt P05106+P08514); test: test (b): GPIIb/IIIa ELISA, inhibition of biotinylated fibrinogen binding; details: 50% inhibition of biotinylated fibrinogen binding to GPIIb/IIIa
# T2 construct: Glycoprotein IIb/IIIa is isolated from human platelet lysates; from tissue
# T2 sequence (P08514 32-887 limits assumed): as the sequence (P08514 32-887 limits assumed) above
# T2 sequence (P08514 891-1039 limits assumed): as the sequence (P08514 891-1039 limits assumed) above
# T2 sequence (P05106 27-788): as the sequence (P05106 27-788) above
# Method: (i) Preparation of human platelet lysates
# Platelet rich plasma (prp) is harvested by centrifugation (1000 rpm, 15 minutes) of whole blood anticoagulated with acid citrate dextrose (trisodium citrate 85 mM, citric acid 70 mM, d-glucose 110 mM) 1 part to 6 parts blood. Prostacyclin (PGI2, 1 μM) is added to the prp before centrifugation (2400 rpm, 15 min) and the resulting pellet is resuspended in modified Tyrodes' solution (NaCl 130 mM, […], NaHCO3, 12 mM, NaH2 PO4 0.5 mM, MgCl2 1 mM, CaCl2 20 mM, Glucose 12 mM, HEPES 5 mM) containing bovine serum albumin 3.5 g/L, PGI2 1 μM and hirudin 0.5 U/ml. The platelet suspension is centrifuged (2400 rpm, 15 minutes) and the resultant pellet resuspended in 500 μl of lysis buffer (octyl glucoside 50 mM, HEPES 10 mM, NaCl 150 mM, CaCl2 1 mM, MgCl2 1 mM, PMSF 1 mM, NEM 10 mM, leupeptin 0.1 mM), agitated at 4° C. for 15 minutes then centrifuged at 24000 rpm, 15 minutes. The supernatant is stored at 4° C. and the pellet re-suspended in 500 μl of lysis buffer. […]
# 96 well microtitre plates are coated with 100 μl purified human platelet fibrinogen receptor (GPIIb/IIIa) diluted in coating buffer (Tris-HCl 20 mM, NaCl 150 mM, CaCl2 1 mM, pH 7.4) and left overnight at 4° C. […] Colour is allowed to develop for 10-15 minutes before optical densities are read at 650 nm. […]
Kb [1] [nM],IC50 [2] [nM],Structure (SMILES)
25.1,25.1,"N=C(N)c1ccc(NC(=O)NC(=O)c2ccc(OCC(=O)O)cc2)cc1 [Example 2, 4-[4-(4-Amidinophenyl)allophanoyl]phenoxyacetic acid]"
31.6,126,"COC(=O)COc1ccc(C(=O)NC(=O)Nc2ccc(C(=N)N)cc2)cc1 [Example 1, Methyl 4-[4-(4-amidinophenyl)allophoyl]phenoxyacetate, acetate salt]"
